Here are results for three compounds from patent publication US12144856B2 (priority 2019, dated 2024).

Data set [1] concerns 2009 pandemic influenza A(H1N1) virus and avian influenza virus A(H7N9). Particulars: cited from earlier work.
The test system of data set [2] is influenza vaccine. Particulars: older adults, cited from earlier work.
For data set [3], the system named is influenza vaccine. The note with it: young adults; topical imiquimod vs sham aqueous cream; cited from earlier work.
Data set [4] has as its system split-virion seasonal influenza vaccine. Nature of the data set: Antibody titers after influenza vaccination with or without intraperitoneal miltefosine (FIG. 1). The format is in vivo, mice. The text has this: FIG. 1: FIG. 1 depicts antibody titers measured 14 days after vaccination with or without miltefosine. A second dose of vaccine was provided on day 14. Circles indicate data from the miltefosine+vaccine treatment group; squares indicate data from the vaccine only treatment group; triangles indicate data from the miltefosine only treatment group; inverted triangles indicate data from a saline-treated control group.
Miltefosine is an FDA-approved anti-parasitic drug that is used in the treatment of Leishmaniasis. The immunomodulating effects of miltefosine include being an agonist of TLR4 and TLR9 (Das S, Rani M, Pandey K, Sahoo G C, Rabidas V N, Singh D, et al. Combination of paromomycin and miltefosine promotes TLR4-dependent induction of antileishmanial immune response in vitro. J Antimicrob Chemother 2012; 67:2373-8; Mukherjee A K, Gupta G, Adhikari A, Majumder S, Kar Mahapatra S, Bhattacharyya Majumdar S, et al. Miltefosine triggers a strong proinflammatory cytokine response during visceral leishmaniasis: role of TLR4 and TLR9. Int Immunopharmacol 2012; 12:565-72), enhancing IFN-γ receptor (Wadhone P, Maiti M, Agarwal R, Kamat V, Martin S, Saha B. Miltefosine promotes IFN-gamma-dominated anti-leishmanial immune response. J Immunol 2009; 182:7146-54), promoting IL12-dependent TH1 response (Wadhone P, Maiti M, Agarwal R, Kamat V, Martin S, Saha B. Miltefosine promotes IFN-gamma-dominated anti-leishmanial immune response. J Immunol 2009; 182:7146-54), and inhibiting PI3K-Akt pathway (Lucas A, Kim Y, Rivera-Pabon O, Chae S, Kim D H, Kim B. Targeting the PI3K/Akt cell survival pathway to induce cell death of HIV-1 infected macrophages with alkylphospholipid compounds. PLoS One 2010; 5). Topical formulation of miltefosine has been evaluated in the treatment of breast carcinoma (Clive S, Gardiner J, Leonard R C. Miltefosine as a topical treatment for cutaneous metastases in breast carcinoma. Cancer Chemother Pharmacol 1999; 44 Suppl:S29-30). […] It was also noted that both IgG1 and IgG2a responses were enhanced by the use of miltefosine in combination with intradermal vaccination.

The subject of data set [5] is influenza infection. Nature of the data set: Survival of mice infected 3 or 7 days after a single influenza vaccination with or without miltefosine (FIGS. 2A, 2B). The format is in vivo. Particulars: intraperitoneal miltefosine adjuvant + vaccine vs vaccine without adjuvant; infected 3 or 7 days after vaccination. The procedure: FIGS. 2A and 2B: FIG. 2A depicts survival rates of infected mice that were vaccinated with or without miltefosine 3 days prior to infection. Data from treatment with 0.2 mg miltefosine+vaccine is represented by a combination a circle and a solid line. Data from treatment with 0.008 mg miltefosine+vaccine is represented by a combination of a rhombus and a dashed line. Data from treatment with 0.2 mg miltefosine only is represented by a dash/dot line. Data from treatment with vaccine only is represented by a combination of a square and a solid line. Data from treatment with a saline control is represented by a dotted line. FIG. 2B depicts survival rates of infected mice that were vaccinated with (circle/dashed line, rhombus/dashed line, or black) or without (square/solid line) miltefosine 7 days prior to infection. Data from treatment with 1 mg miltefosine+vaccine is represented by a combination a triangle and a solid line. Data from treatment with 0.2 mg miltefosine+vaccine is represented by a combination a circle and a solid line. Data from treatment with 0.008 mg miltefosine+vaccine is represented by a combination of a rhombus and a dashed line. Data from treatment with 0.2 mg miltefosine only is represented by a dash/dot line. Data from treatment with vaccine only is represented by a combination of a square and a solid line. […]

For data set [6], the system named is influenza infection. As to the kind of experiment: Post-infection antibody, hemagglutination and microneutralization titers of mice vaccinated with or without miltefosine (FIG. 3). The note with it: intraperitoneal miltefosine + vaccine vs vaccine only. Format: in vivo. The text has this:
Circles indicate data from the miltefosine+vaccine treatment group; squares indicate data from the vaccine only treatment group; triangles indicate data from the miltefosine only treatment group; inverted triangles indicate data from a saline-treated control group.
In FIG. 3 circles indicate data from the miltefosine+vaccine treatment group, squares indicate data from the vaccine only treatment group, triangles indicate data from the miltefosine only treatment group, and inverted triangles indicate data from a saline-treated control group.

[7] abbreviates: miltefosine + vaccine vs vaccine only, 14 days after vaccination.

In the data set “in vitro”, `CCCCC/C=C\C/C=C\C/C=C\C/C=C\CCCC(=O)N[C@H](C)CO` [(R)-methanandamide] came in with a CC50 of more than 60 µM.

With `CC(C)Cn1cnc2c(N)nc3ccccc3c21` [imiquimod], the “Death during lethal challenge” value in data set [1] (2009 pandemic A(H1N1) and A(H7N9) lethal challenge) is on record as “reduction”. For the same compound, in data set [1] (mouse model), the “Immunogenicity of the influenza vaccine” value was “accelerate and augment”. Moreover, the Antibody response result with influenza vaccine [2] (topical imiquimod vs sham aqueous cream before intradermal vaccine) was “more rapid and robust”. Moreover, in the data set on influenza vaccine [2] (topical imiquimod vs sham aqueous cream), the “Rate of hospitalization and pneumonia” value is given as “significantly lower”. Moreover, the “Antibody responses for homologous virus” value in the data set on influenza vaccine [3] is “faster and more robust”.

Take `CCCCCCCCCCCCCCCCOP(=O)([O-])OCC[N+](C)(C)C` [miltefosine]: in data set [4] (setting [7]), the Hemagglutination titer entry is given as “improved” and the Microneutralization titer entry is on record as “improved”. Moreover, the IgG titer entry in data set [4] (miltefosine in combination with influenza vaccination vs vaccine only, two weeks post-immunization) is “significantly increased”. For the same compound, the “IgG1 and IgG2a responses” value in data set [4] (miltefosine in combination with vaccination) is recorded as “enhanced”. In addition, the Survival entry in the data set with influenza infection [5] is reported as “significantly improved”. The IgG1/IgG2 ratio entry in the data set on influenza infection [6] is on record as “greater”. In the data set with influenza infection [6] (4 days post-infection), the HAI titer result is reported as “significantly higher” and the MN titer entry is reported as “significantly higher”.
